# According to publication PMC6584114, “Metabolism of IMM-H004 and Its Pharmacokinetic-Pharmacodynamic Analysis in Cerebral Ischemia/Reperfusion Injured Rats” (Frontiers in Pharmacology, 2019):
# Key:
# [1] = parameters: method as in Jiang et al., 2018; conditions: rat brain; ref Jiang et al., 2018; cited from earlier work
# [2] = tested on: rat liver microsomes (RLMs); test: Kinetics of IMM-H004 demethylation (M1 and M2 formation) in rat liver microsomes; type: in vitro ADME; conditions: substrate IMM-H004
# Protocol: (§1) To compare the metabolic capability of IMM-H004 demethylation in rat and human liver microsomes, the kinetics of M1 and M2 formation in HLMs or RLMs were determined. Enzyme kinetic experiments were performed in triplicate. The incubation mixtures contained HLM/RLM (1 mg protein/ml), IMM-H004 (0.1–1,800 μM), and NADPH (1.2 mM) in a final volume of 0.2 ml Tris-HCl buffer (50 mM, pH 7.4) containing 5 mM MgCl2. The reaction was incubated at 37°C for 20 min and stopped by adding 200 μL of ice-cold acetonitrile containing IS (100 ng/ml). After vortex-mixing and centrifugation, M1 and M2 in the supernatant were analyzed by LC-MS/MS.
# (§2) The LC-MS/MS system consisted of Shimadzu 30A UPLC and API 4000 triple quadruple mass spectrometer (AB SCIEX, USA). Data acquisition and analysis were accomplished using Analyst 1.5.2 software. The analytes and IS were chromatographed by injection of 1 μL sample. The mobile phases consisted of solvent A (0.5% formic acid in water) and solvent B (0.5% formic acid in methanol) at a flow rate of 0.3 ml/min on an Eclipse Plus C18 column (2.1 mm × 50 mm, 3.5 μm, Agilent, USA), and the operating temperature was 40°C. The elution condition was 10% solvent B for 0.7 min, ascending to 98% B in 2.3 min, holding for 3.0 min and reequilibrating to 10% B within 0.1 min and maintained for 2.4 min (Jiang JW, 2018). The specific transitions monitored were 305→248 for IMM-H004, 291→234 for M1, 291→248 for M2, 481→305 for IMM-H004G, 385→305 for M4, and 260→183 for IS.
# [3] = tested on: human liver microsomes (HLMs); test: Kinetics of IMM-H004 demethylation (M1 and M2 formation) in human liver microsomes; type: in vitro ADME; conditions: substrate IMM-H004
# Protocol: as §1, §2
# [4] = Excretion in rat urine, bile and feces after iv IMM-H004 citrate; type: in vivo; conditions: iv IMM-H004 citrate 6 mg/kg
# Protocol: After intravenous (iv) injection with IMM-H004 citrate (6 mg/kg, dissolved in saline to yield a concentration of 1.2 mg/ml), rats were housed individually in metabolic cages to allow separate collection of urine and feces until 72 h postdose. Additional rats were bile cannulated under light ether anesthesia. Each rat was housed individually in a metabolic cage and allowed to recover from anesthesia for 2 to 3 h. Then bile duct cannulated rats were iv injected with IMM-H004 citrate (6 mg/kg, dissolved in saline to yield a concentration of 1.2 mg/ml), bile samples were collected until 24 h postdose.
# Feces samples were homogenized in 10-fold solvent of water and methanol (1:1) and diluted 10-fold in water. Bile and urine samples were diluted 100-fold in water. The concentrations of IMM-H004, M1, M2, and IMM-H004G in diluted bile, urine, and feces samples were determined by LC-MS/MS.
# as §2
# MCAO/R rats = test: Neuroprotection in transient MCAO/R rats (infarct volume, neurological score); type: in vivo, rat; conditions: 10 mg/kg iv after reperfusion, 24 h, vs model
# Description: Transient MCAO/R was applied to compare the neuroprotection of IMM-H004 and IMM-H004G. Rats were fasted overnight with free access to water and randomly assigned to different groups. Rats were anesthetized with a mixture of 5% isoflurane and 95% oxygen and maintained with a mixture of 3% isoflurane and 97% oxygen during the surgical procedure. A 4-0 nylon thread, the tip of which was burned (diameter 0.36 mm), was inserted into the right internal carotid artery and advanced until the origin of the right MCA was occluded. After 60 min of the occlusion, the thread was withdrawn to allow reperfusion, and then the rats were returned to the chamber. Saline or edaravone at dose of 6 mg/kg or IMM-H004 citrate and IMM-H004G at dose of 10 mg/kg (dissolved in saline to yield a concentration of 2 mg/ml) were administered by intravenous injection immediately after reperfusion.
# The rats were assessed for neurologic deficits at 24 h after reperfusion according to Zea Longa’s five-point scale. […] The animals without symptoms of neurological impairment or dying after the surgery were rejected. All animals were killed 24 h after reperfusion. Brains of the animals were removed and cut into 2 mm-thick slices, for a total of six slices per animal. The slices were immersed in a 2% solution of 2,3,5-triphenyltetrazolium chloride in phosphate buffered saline at 37°C for 20 min and then fixed in 4% formaldehyde overnight. Images of the slices were obtained with a scanner and a computer. The infarct area and the total area were calculated by tracing the areas on the computer screen with Image J. The percentage of the infarct volume was expressed as the infarct volumes (white parts)/the whole volume of the cortex.
smiles,measurement,setting,value
"COc1cc(O)cc2oc(=O)c(N3CCN(C)CC3)c(C)c12 [IMM-H004, 7-hydroxy-5-methoxy-4-methyl-3-(4-methylpiperazin-1-yl)-coumarin]",T max (crossing the blood–brain barrier),[1],12.6 min
same,K m of M1 formation (6-demethylation),[2],"1,244.0 μM"
same,K m of M2 formation (N-demethylation),[2],111.9 µM
same,V max of M1 formation (6-demethylation),[2],1.34 nmol/min/mg protein
same,V max of M2 formation (N-demethylation),[2],0.12 nmol/min/mg protein
same,K m of M1 formation (6-demethylation),[3],"2,935.0 μM"
same,K m of M2 formation (N-demethylation),[3],491.4 µM
same,V max of M1 formation (6-demethylation),[3],1.99 nmol/min/mg protein
same,V max of M2 formation (N-demethylation),[3],0.07 nmol/min/mg protein
same,recovery of IMM-H004G and IMM-H004 in bile,"[4]; bile duct cannulated rats, until 24 h",76.1 % of intake
same,IMM-H004 in fecal specimens,"[4]; rat feces, until 72 h",18 % of the dose
same,infarct volume,MCAO/R rats,markedly reduced (p < 0.01)
same,neurological test score,MCAO/R rats,significant improvement (p < 0.01)
